For orientation: LD50 means the dose at which mortality reaches 50%. Lower therefore signals a more toxic substance.

Experimental findings from US4294842A, “Anti-protozoal oxadiazole derivatives” (Burroughs Wellcome Co., priority 1978, dated 1981) are described below.

Each structure is given as a SMILES string.

The test system of one data set is P. berghei. Description: Inhibition of P. berghei blood parasitaemia in infected mice (oral). As to conditions: Plasmodium berghei, 96 h, read-out: Percentage Inhibitions of P. berghei; for inhibition in vivo at 100 mg/kg: 7 × 100 mg/kg, parasitaemia on fourth day vs untreated controls; for inhibition in vivo at 50 mg/kg: 7 × 50 mg/kg. It is filed as in vivo. An excerpt: Groups of five mice were inoculated intraperitoneally with the normal strain of P. berghei. The mice on test received seven oral doses of drug begining on the afternoon of the day of infection then twice a day for the following three days. Blood parasitaemias were estimated on the fourth day and compared with those of the untreated controls.
The results are given in Table 1, the results being expressed as percentage inhibition of P.berghei.

A short description of another data set: Oral LD50 in mice. As to conditions: mouse, in vivo, suspension in 0.25% Celacol. As for the experimental part: The LD50 of the compound of Example 4 was determined in mice by conventional methods, the compound being administered orally as a suspension in 0.25% Celacol.
Data set [1] relates to Eimeria tenella. Description: Inhibition of Eimeria tenella in monolayer cultures of chick embryo liver cells. It is filed as cell-based. As to conditions: fixed 90 hours after infection, scale 0 to 4. On the procedure:
Monolayer cultures of chick embryo liver cells were seeded onto microtitration plates and treated with the test compound (formulated by suspension in ethanol (0.05 ml) followed by dilution with sterile water (0.95 ml). Sporozoites of Eimeria tenella in culture medium were added and the culture fixed 90 hours after infection. The percentage inhibition compared to controls was determined, the results being expressed on a sacle of 0(0-10% inhibition) to 4(91-100% inhibition). The results are given in Table 2.

Data set [2] has as its system Eimeria tenella. Kind of data set: Index of inhibition, 400ppm in vivo (Table 2). The conditions noted are these: scale 0 to 4.

With `Cc1ccc(SCc2ncon2)cc1` [Example 1, 3-(4-Methylphenylthiomethyl)-1,2,4-oxadiazole], the inhibition in vivo at 100 mg/kg in the data set with P. berghei was 38%. The same measure, in the same setting: as for `Brc1ccc(SCc2ncon2)cc1` [Example 3, 3-(4-Bromophenylthiomethyl)-1,2,4-oxadiazole], the figure is 71%. With `c1ccc(SCc2ncon2)cc1` [Example 4, 3-Phenylthiomethyl-1,2,4-oxadiazole], the inhibition in vivo at 100 mg/kg in the data set with P. berghei was determined as 49%. Further, the LD50 in “Oral LD50 in mice” was about 1600 mg/kg. As for `Brc1ccccc1SCc1ncon1` [Example 5, 3-(2-Bromophenylthiomethyl)-1,2,4-oxadiazole], the inhibition in vivo at 80 mg/kg in the data set with P. berghei (7 × 80 mg/kg) amounted to 2%. Further, the “Index of Inhibition” value with Eimeria tenella [1] (20μg/ml) was 1. For `COc1ccccc1SCc1ncon1` [Example 6, 3-(2-Methoxyphenylthiomethyl)-1,2,4-oxadiazole], the inhibition in vivo at 50 mg/kg in the data set on P. berghei was 5%. Consider `c1ccc(Sc2cccc(SCc3ncon3)c2)cc1` [Example 7, 3-(3-Phenylthiophenylthiomethyl)-1,2,4-oxadiazole], for which the inhibition in vivo at 100 mg/kg with P. berghei came to 2%. Further, in the data set with Eimeria tenella [1] (20μg/ml), the “Index of Inhibition” value stood at 1.

With `Cc1cccc(SCc2ncon2)c1` [Example 8, 3-(3-Methylphenylthiomethyl)-1,2,4-oxadiazole], the “Index of Inhibition” value in the data set with Eimeria tenella [1] (20μg/ml) is 3.

`Nc1cccc(SCc2ncon2)c1` [Example 9, 3-(3-Aminophenylthiomethyl)-1,2,4-oxadiazole]: in the data set with P. berghei, the inhibition in vivo at 100 mg/kg turned out to be 34%. The “Index of Inhibition” value with Eimeria tenella [1] (20μg/ml) was determined as 2.

On to `COc1cccc(SCc2ncon2)c1` [Example 10, 3-(3-Methoxyphenylthiomethyl)-1,2,4-oxadiazole], for which, in the data set with Eimeria tenella [1] (5μg/ml), the “Index of Inhibition” value is on record as 4 (91-100% inhibition). For `O=[N+]([O-])c1ccc(SCc2ncon2)cc1` [Example 12, 3-(4-Nitrophenylthiomethyl)-1,2,4-oxadiazole], the inhibition in vivo at 100 mg/kg in the data set with P. berghei is 14%. In addition, the “Index of Inhibition” value with Eimeria tenella [1] (20μg/ml) is on record as 4 (91-100% inhibition). For `COc1ccc(SCc2ncon2)cc1` [Example 13, 3-(4-Methoxyphenylthiomethyl)-1,2,4-oxadiazole], the “Index of Inhibition” value with Eimeria tenella [1] (20μg/ml) was 2.

For `Nc1ccc(SCc2ncon2)cc1` [Example 14, 3-(4-Aminophenylthiomethyl)-1,2,4-oxadiazole], the inhibition in vivo at 100 mg/kg with P. berghei worked out at 41%. For the same molecule, the “Index of Inhibition” value in the data set with Eimeria tenella [1] (20μg/ml) is on record as 2. On to `Fc1ccc(SCc2ncon2)cc1` [Example 15, 3-(4-Fluorophenylthiomethyl)-1,2,4-oxadiazole], for which the inhibition in vivo at 50 mg/kg in the data set on P. berghei stood at 59%. Moreover, the “Index of Inhibition” value with Eimeria tenella [1] (20μg/ml) is on record as 3. `CSc1ccc(SCc2ncon2)cc1` [Example 16, 3-(4-Methylthiophenylthiomethyl)-1,2,4-oxadiazole]: the inhibition in vivo at 100 mg/kg in the data set with P. berghei was found to be 4%. Further, in the data set with Eimeria tenella [1] (20μg/ml), the “Index of Inhibition” value is listed as 2. In the same order, the values of `Cc1cccc(SCc2ncon2)c1C` [Example 17, 3-(2,3-Dimethylphenylthiomethyl)-1,2,4-oxadiazole] are 62% and 2. As to `Cc1ccc(SCc2ncon2)c(C)c1` [Example 18, 3-(2,4-Dimethylphenylthiomethyl)-1,2,4-oxadiazole], the inhibition in vivo at 100 mg/kg in the data set on P. berghei is 14%. Also, the “Index of Inhibition” value in the data set on Eimeria tenella [1] (20μg/ml) is recorded as 2.

On to `c1ccc2c(SCc3ncon3)cccc2c1` [Example 19, 3-(1-Naphthylthiomethyl)-1,2,4-oxadiazole], for which the inhibition in vivo at 50 mg/kg in the data set on P. berghei worked out at 55%. `Clc1ccc(SCc2ncon2)cc1Cl` [Example 20, 3-(3,4-Dichlorophenylthiomethyl)-1,2,4-oxadiazole]: the “Index of Inhibition” value in the data set on Eimeria tenella [1] (20μg/ml) was found to be 3.

Regarding `Clc1cc(Cl)c(SCc2ncon2)cc1Cl` [Example 21, 3-(2,4-5-Trichlorophenylthiomethyl)-1,2,4-oxadiazole], the inhibition in vivo at 20 mg/kg in the data set with P. berghei (7 × 20 mg/kg) is 18%. The inhibition in vivo at 100 mg/kg in the data set with P. berghei was found to be 19%. Further, the “Index of Inhibition” value in the data set on Eimeria tenella [1] (20μg/ml) is 4 (91-100% inhibition). As to `Cc1nc(CSc2ccc(Br)cc2)no1` [Example 22, 3-(4-Bromophenylthiomethyl)-5-methyl-1,2,4-oxadiazole], the inhibition in vivo at 100 mg/kg with P. berghei stood at 46%. The “Index of Inhibition” value with Eimeria tenella [1] (20μg/ml) was found to be 2. On to `Cc1nc(CSc2cccc(C)c2C)no1` [Example 23, 3-(2,3-Dimethylphenylthiomethyl)-5-methyl-1,2,4-oxadiazole], for which the “Index of Inhibition” value with Eimeria tenella [1] (20μg/ml) is 3. As to `Cc1nc(CSc2ccc([N+](=O)[O-])cc2)no1` [Example 24, 3-(4-Nitrophenylthiomethyl)-5-methyl-1,2,4-oxadiazole], the “Index of Inhibition” value in the data set on Eimeria tenella [1] (20μg/ml) is given as 2. In the case of `Cc1nc(CSc2ccc(Cl)cc2)no1` [Example 25, 3-(4-Chlorophenylthiomethyl)-5-methyl-1,2,4-oxadiazole], in the data set on Eimeria tenella [1] (20μg/ml), the “Index of Inhibition” value stood at 2. Regarding `Brc1ccc(SCc2noc(CSc3ccc(Br)cc3)n2)cc1` [Example 26, 3,5-Di-(4-bromophenylthiomethyl)-1,2,4-oxadiazole], the inhibition in vivo at 100 mg/kg in the data set on P. berghei was found to be 99%. The “Index of Inhibition” value with Eimeria tenella [1] (20μg/ml) worked out at 2.

For `Clc1ccc(SCc2noc(CSc3ccc(Cl)cc3)n2)cc1` [Example 27, 3,5-Di-(4-chlorophenylthiomethyl)1,2,4-oxadiazole], the inhibition in vivo at 100 mg/kg in the data set on P. berghei came to 47%.

As for `Oc1ccccc1SCc1ncon1` [Example 29, 3-(2-Hydroxyphenylthiomethyl)-1,2,4-oxadiazole], the inhibition in vivo at 100 mg/kg in the data set with P. berghei came to 23%. Take `FC(F)(F)c1cccc(SCc2ncon2)c1` [Example 31, 3-(3-Trifluoromethylphenylthiomethyl)-1,2,4-oxadiazole]: the “Index of Inhibition” value in the data set on Eimeria tenella [1] (20μg/ml) is listed as 4 (91-100% inhibition). Still for that read-out and setting: next, `CCCCc1ccc(SCc2ncon2)cc1` [Example 32, 3-(4-n-Butylphenylthiomethyl)-1,2,4-oxadiazole]: 2. As to `CN(C)c1ccc(SCc2ncon2)cc1` [Example 33, 3-(4-N,N-Dimethylaminophenylthiomethyl)-1,2,4-oxadiazole], the inhibition in vivo at 100 mg/kg in the data set with P. berghei stood at 19%. With `CC(C)(C)c1ccc(SCc2ncon2)cc1` [Example 34, 3-(4-t-Butylphenylthiomethyl)-1,2,4-oxadiazole], in the data set on P. berghei, the inhibition in vivo at 100 mg/kg stood at 28%.

For the molecule `Clc1ccc(SCc2ncon2)cc1` [Example 36, 3-(4-Chlorophenylthiomethyl)-1,2,4-oxadiazole], the “Index of Inhibition” value in the data set on Eimeria tenella [2] was 4 (91-100% inhibition). As to `Cc1ccc(Br)c(SCc2ncon2)c1` [Example 37, 3-(2-Bromo-5-methylphenylthiomethyl)-1,2,4-oxadiazole], the “Index of Inhibition” value in the data set with Eimeria tenella [1] (5μg/ml) is recorded as 2; with Eimeria tenella [1] (20μg/ml), 3. For the molecule `c1ccc2cc(SCc3ncon3)ccc2c1` [Example 38, 3-(2-Naphthylthiomethyl)-1,2,4-oxadiazole], the inhibition in vivo at 100 mg/kg with P. berghei was 21%.

With `Nc1ccccc1SCc1nc(CSc2ccc(Cl)cc2)no1` [Example 40, 5-(2-aminophenylthiomethyl)-3-(4-chlorophenylthiomethyl)-1,2,4-oxadiazole], in the data set with P. berghei, the inhibition in vivo at 100 mg/kg was 18%. Take `Nc1ccc(SCC2=NOCN2)cc1` [Example 44, 3-(4-aminophenylthiomethyl)-4,5-dihydro-1,2,4-oxadiazole]: the inhibition in vivo at 100 mg/kg with P. berghei came out at 10%.

In the case of `N#CSc1ccc(SCc2ncon2)cc1` [Example 45, 3-(4-Thiocyanatophenylthiomethyl)-1,2,4-oxadiazole], in the data set with P. berghei (7 × 10 mg/kg), the inhibition in vivo at 10 mg/kg came out at 34%. For the same molecule, the “Index of Inhibition” value in the data set with Eimeria tenella [1] (5μg/ml) is recorded as 2.
